Measurements from PubChem BioAssay (NCI).
“And” between values parts separate entries of the source, which are not always exact repeats. Equal entries are not always repeated.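 All cell lines were grown in 96-well plates and treated with compound for 48 hours. At the GI50, growth is halved. TGI: total growth inhibition.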

Tests used:
Experiment in all cases: growth of human tumour cells (NCI), 48 h
SF-539 CNS = system: SF-539 CNS
M14 melanoma = system: M14 melanoma
SK-MEL-2 melanoma = system: SK-MEL-2 melanoma
OVCAR-5 ovarian = system: OVCAR-5 ovarian
HCT-15 colon = system: HCT-15 colon
TK-10 renal = system: TK-10 renal
786-0 renal = system: 786-0 renal
T-47D breast = system: T-47D breast
UACC-62 melanoma = system: UACC-62 melanoma
SK-MEL-5 melanoma = system: SK-MEL-5 melanoma

Compound	GI50 (SF-539 CNS)	TGI (SF-539 CNS)	GI50 (M14 melanoma)	TGI (M14 melanoma)	GI50 (SK-MEL-2 melanoma)	TGI (SK-MEL-2 melanoma)	GI50 (OVCAR-5 ovarian)	TGI (OVCAR-5 ovarian)	GI50 (HCT-15 colon)	TGI (HCT-15 colon)	GI50 (TK-10 renal)	TGI (TK-10 renal)	GI50 (786-0 renal)	TGI (786-0 renal)	GI50 (T-47D breast)	TGI (T-47D breast)	GI50 (UACC-62 melanoma)	TGI (UACC-62 melanoma)	GI50 (SK-MEL-5 melanoma)	TGI (SK-MEL-5 melanoma)
O=C(O)CSc1cc(NS(=O)(=O)c2ccc(Br)cc2)c2ccccc2c1O	17.8 µM	32.8 µM	15.1 µM	29.5 µM	9.92 µM	28.6 µM	21.6 µM	47.1 µM	13.3 µM	30.7 µM	20.3 µM	34.7 µM	19.9 µM	38.3 µM	4.84 µM	23.1 µM	7.81 µM	23.4 µM	14.7 µM	27.9 µM
O=C1NC(=O)N(S(=O)(=O)c2cc(C(=O)Nc3ccc(Cl)cc3)c(Cl)cc2S)S(=O)(=O)N1	19.7 µM	39.3 µM	16.2 µM	31.6 µM	27.7 µM	66.1 µM	19.4 µM	35.3 µM	18.9 µM	36.5 µM	23.8 µM	45.5 µM	17.9 µM	33.7 µM	6.65 µM	55.7 µM	6.67 µM	23.6 µM	13.1 µM	28.5 µM
CC1(C)CC2=NO[Se]3=C2C(=NO3)C1		5.75 µM		6.25 µM		24.8 µM		20.5 µM		11.5 µM		19.5 µM		12.4 µM		24.7 µM		6.63 µM		3.28 µM
N=C(N)SCc1ccc(Cl)c2ccccc12 (tested in a mixture with another compound)		23.1 µM and 20.4 µM		23.8 µM and 26.5 µM		21.7 µM and 25.1 µM		26.8 µM and 27.6 µM		32.8 µM and 36.8 µM		20.9 µM and 19.7 µM		23.9 µM and 27.2 µM		18.3 µM and 21.7 µM		26.4 µM and 25.6 µM		25.6 µM and 21.6 µM
O=[N+]([O-])c1ccc(/C=C(/c2ccc([N+](=O)[O-])o2)S(=O)(=O)c2ccccc2)cc1		98.3 µM		> 100 µM		> 100 µM		> 100 µM		88.7 µM		> 100 µM		> 100 µM		> 100 µM		75.7 µM		34.3 µM
Oc1c(Br)cc(Cl)cc1C(c1cc(Cl)cc(Br)c1O)C(Cl)(Cl)Cl	3.15 µM	10.7 µM	3.74 µM	12.8 µM	2.31 µM	5.08 µM	3.58 µM	13 µM	1.39 µM	9.06 µM	4.3 µM	13.3 µM	2.96 µM	10.3 µM	2.84 µM	11.1 µM	1.94 µM	8.99 µM	1.64 µM	3.83 µM
OCc1ccc(N2CCc3ccc(F)cc3C2)cc1Cl	15.9 µM	31 µM	14.5 µM	30 µM	0.226 µM	8.79 µM	0.0301 µM	0.183 µM	2.82 µM	18.8 µM	0.0178 µM	0.0693 µM	3.11 µM	23.8 µM	0.101 µM	0.499 µM	0.0405 µM	0.248 µM	0.856 µM	20 µM
CCCCCCCCCCN=C(N)c1ccc(N2CCN(c3ccc(C(N)=NCCCCCCCCCC)cc3)CC2)cc1	1.72 µM	6.76 µM	18 µM	> 50 µM	7.74 µM	> 50 µM	5.25 µM	> 50 µM	14.1 µM	> 50 µM	8.29 µM	> 50 µM	16 µM	> 50 µM	5.91 µM	18.8 µM	6.67 µM	38.1 µM	2.19 µM	> 50 µM
c1cc(OCCCCCOc2cccc(-c3nc4ccccc4[nH]3)c2)cc(-c2nc3ccccc3[nH]2)c1	5.08 µM	> 100 µM	2.57 µM	> 100 µM	2.05 µM	5.67 µM	2.76 µM	> 100 µM	2.71 µM	> 100 µM	3.88 µM	> 100 µM	2.68 µM	> 100 µM	0.458 µM	3.18 µM	2.83 µM	> 100 µM	1.68 µM	3.08 µM
O=C1NC(=NCc2cccs2)O/C1=C\c1ccc2ncccc2c1	2.87 µM	8.59 µM	5 µM	17 µM	4.2 µM	9.82 µM	6.58 µM	23.9 µM	6.38 µM	> 25 µM	2.89 µM	9.61 µM	6.21 µM	> 20.3 µM	2.98 µM	12.6 µM	4.42 µM	11.5 µM	4.63 µM	9.83 µM
O=C1NC(=O)C2C3C=CC(C12)C1C2C(=O)NC(=O)C2C31 (stereo not given)	316 µM	199 µM and > 1000 µM	> 973 µM	250 µM and > 1000 µM	> 719 µM	244 µM and > 1000 µM	> 1000 µM	> 1000 µM	> 43.6 µM and 646 µM	> 61 µM and 250 µM and > 1000 µM	695 µM	> 1000 µM	> 250 µM	> 1000 µM	480 µM	> 1000 µM	636 µM	227 µM and > 1000 µM	389 µM	224 µM and > 756 µM
COc1nc(N)nc2nc[nH]c12	> 800 µM	500 µM and > 800 µM and > 1000 µM	772 µM and 585 µM	500 µM and 800 µM and > 1000 µM	> 800 µM	500 µM and > 800 µM and > 853 µM	401 µM and > 728 µM	491 µM and 800 µM and > 1000 µM	> 800 µM	500 µM and > 800 µM and > 1000 µM	431 µM and 442 µM	500 µM and 800 µM and > 1000 µM	639 µM and 214 µM	500 µM and 800 µM and > 418 µM	> 779 µM	500 µM and > 1000 µM	441 µM and 349 µM	429 µM and 800 µM and > 1000 µM	> 800 µM and 782 µM	> 1000 µM
O=c1c(Oc2ccc(F)cc2F)cc2cnc(NC3CCOCC3)nc2n1C1CC1	> 25 µM	> 25 µM	> 25 µM	> 25 µM	> 25 µM	> 25 µM	> 25 µM	> 25 µM	> 25 µM	> 25 µM	19.8 µM	> 25 µM	> 25 µM	> 25 µM	19.3 µM	> 25 µM	> 25 µM	> 25 µM	> 25 µM	> 25 µM
COc1ccc(Cn2c(Br)c3c(c2-c2cc(OC)c(OC)c(OC)c2)CCc2sc(N)nc2-3)cc1	1.16 µM	10.5 µM	1.36 µM	> 44.9 µM	0.72 µM	5.41 µM	4.26 µM	> 100 µM	1.05 µM	> 48.7 µM	1.1 µM	6.96 µM	2.17 µM	> 49.8 µM	0.626 µM	21.5 µM	0.598 µM	15 µM	1.6 µM	13.5 µM
CC1=C(C(=O)Nc2ccc3[nH]ncc3c2)C(c2ccc(F)cc2)N=C(c2ccc(C(F)(F)F)nc2)N1 (stereo not given)	7.61 µM	> 25 µM	10.4 µM	> 25 µM	9.49 µM	> 25 µM	> 25 µM	> 25 µM	16.2 µM	> 25 µM	> 24.1 µM	> 25 µM	10.8 µM	> 25 µM	> 20 µM	> 25 µM	10.1 µM	> 25 µM	7.45 µM	> 25 µM
C=C(C)c1nc(Oc2ccccc2)nc(Oc2ccccc2)n1		14.5 µM		11.3 µM		9.51 µM		30.2 µM		7.43 µM		14 µM		15 µM		21.6 µM		18.1 µM		27.4 µM
CC(C)c1ccc2c(c1)CCC1C2CCCC1(C)NCc1ccccc1 (stereo not given)	5.5 µM	18.5 µM	1.97 µM	3.71 µM	2.04 µM	4.16 µM	3.48 µM	13.6 µM	2.87 µM	9.05 µM	2.71 µM	7.19 µM	2.43 µM	5.61 µM	2.22 µM	4.63 µM	1.96 µM	4.39 µM	1.82 µM	3.35 µM
CN1CCN(C(=O)/C=C/c2ccc([N+](=O)[O-])o2)CC1	15 µM	45 µM	3.11 µM	11.7 µM	6.5 µM	29.6 µM	22.3 µM	39.1 µM	3.14 µM	14.9 µM	31.7 µM	> 100 µM	18.6 µM	36.7 µM	18.1 µM	45.4 µM	11.1 µM	23.4 µM	7.52 µM	20.4 µM
COc1cc(/C=C/c2cc(/C=C/c3ccc(O)c(OC)c3)n(C(=O)Nc3ccc(C)cc3)n2)ccc1O	0.442 µM	2.47 µM	0.287 µM	1.05 µM	0.681 µM	3.97 µM	1.89 µM	5.89 µM	0.384 µM	5.27 µM	0.874 µM	5.81 µM	0.412 µM	1.81 µM	1.14 µM	3.33 µM	0.519 µM	2.61 µM	0.306 µM	1.21 µM
CN(C)CCCC1(c2ccc(F)cc2)OCc2cc(-c3csc4ccccc34)ccc21 (stereo not given)	1.71 µM	3.08 µM	1.66 µM	3.36 µM	1.83 µM	3.58 µM	1.55 µM	2.95 µM	1.64 µM	3.07 µM	1.6 µM	3.16 µM	1.84 µM	3.63 µM	1.71 µM	3.7 µM	1.69 µM	3.13 µM	1.77 µM	3.17 µM
O=C(NO)c1ccc(CNc2cccc3nc(C4CC4)n(-c4ccccc4)c(=O)c23)cc1	1.71 µM	3.53 µM	1.91 µM	4.14 µM	2.76 µM	7.45 µM	2.06 µM	6.1 µM	1.98 µM	6.33 µM	1.73 µM	7 µM	2.18 µM	5.2 µM	2.08 µM	7.34 µM	1.96 µM	4.66 µM	2.15 µM	4.8 µM
Cc1cccc(Oc2ccc(Nc3ncnc4ccc(NC(=O)CN(C)C)cc34)cc2Cl)c1	1.82 µM	3.42 µM	1.71 µM	3.5 µM	1.84 µM	3.63 µM	2.98 µM	12.9 µM	1.6 µM	3.13 µM	1.1 µM	3.57 µM	1.59 µM	3.16 µM	1.08 µM	4.59 µM	1.71 µM	3.38 µM	1.64 µM	3.03 µM
C/C(=C\c1csc(C)n1)[C@@H]1C[C@@H]2O[C@]2(C)CCC[C@H](C)[C@H](O)[C@@H](C)C(=O)C(C)(C)[C@@H](O)CC(=O)N1	0.000165 µM	0.000369 µM	0.00154 µM	0.011 µM	< 1e-05 µM	< 1e-05 µM	0.000262 µM	0.000447 µM	0.000152 µM	0.000344 µM	0.00534 µM	0.0411 µM	0.000182 µM	0.000356 µM	0.000189 µM	0.000469 µM	0.000171 µM	0.000412 µM	0.000137 µM	0.000337 µM
CCCCCCCCCCCCOC1C(C(COC2OC(C(O)CO)C3OC(C)(C)OC23)OC(=O)Nc2ccccc2)OC2OC(C)(C)OC21 (stereo not given)	9.14 µM	22.3 µM	5.12 µM	17 µM	16.3 µM	32.4 µM	4.84 µM	16.3 µM	4.5 µM	16.1 µM	4.72 µM	9.91 µM	5.84 µM	17.2 µM	5.02 µM	16.6 µM	10.5 µM	22.5 µM	8.55 µM	25.6 µM
O=C1c2ccccc2-c2c1c1c(O)cccc1n2Cc1ccccc1	14.2 µM	35.3 µM	26.7 µM	> 100 µM	39.7 µM	> 100 µM	16.4 µM	51.2 µM	27.5 µM	> 100 µM	8.74 µM	22.5 µM	15.6 µM	31.9 µM	7.8 µM	90.2 µM	7.35 µM	27.2 µM	5.62 µM	24.7 µM
